Earlier results as cited in article PMC10071776, “Binding proteins of destruxin A from Metarhizium against insect cell” (BMC Microbiology, 2023).
Where a SMILES comes first, the peptide text is derived from it. [ ]: non-standard residue; d: D form. dLac(3-vinyl) = C=CC[C@@H](O)C(=O)O; NMeV = CN[C@H](C(=O)O)C(C)C; NMeA = CN[C@@H](C)C(=O)O; βAla = NCCC(=O)O

How the values were obtained:
hemocyte ATPase = details: higher than DA; ref [13]
From the text: (§1) The multi-target strategy of destruxin has resulted from the evolution of interactions between Metarhizium spp. and insects. When Metarhizium spp. invades a host insect, it secretes a variety of structurally similar destruxins that attack as many tissues and organs. These produce a diseased state, weakening insect resistance and enabling successfully fungus colonization.

insects = details: no reference given
From the text: as §1

tumor = details: no reference given
From the text: as §1

[1] = stated in SPR method; no measurement described, no reference given

Compound | affinity of DB relative to DA (hemocyte ATPase) [times] | insecticidal activity relative to DA (insects) | antitumor activity relative to DA (tumor) | solubility in water [1]
destruxin B [DB] | 100 | lower insecticidal activity than DA | greater antitumor activity than DA | 
C=CC[C@H]1OC(=O)CCNC(=O)[C@H](C)N(C)C(=O)[C@H](C(C)C)N(C)C(=O)[C@H]([C@@H](C)CC)NC(=O)[C@@H]2CCCN2C1=O [DA, Destruxin A] (cyclo(I[NMeV][NMeA][βAla][dLac(3-vinyl)]P)) |  |  |  | insoluble in water
